Assay results: patent US7985731B2, “Sugar chain added GLP-1 peptide” (Otsuka Chemical Holdings Co., Ltd., priority 2007, dated 2011)
Peptide text beside a SMILES is read from it. * marks the point of attachment. X1 = CC(=O)N[C@@H]1[C@@H](O)[C@H](O[C@@H]2O[C@H](CO)[C@@H](O[C@@H]3O[C@H](CO[C@H]4O[C@H](CO)[C@@H](O)[C@H](O)[C@@H]4O[C@@H]4O[C@H](CO)[C@@H](O[C@@H]5O[C@H](CO[C@]6(C(=O)O)C[C@H](O)[C@@H](NC(C)=O)[C@H]([C@H](O)[C@H](O)CO)O6)[C@H](O)[C@H](O)[C@H]5O)[C@H](O)[C@H]4NC(C)=O)[C@@H](O)[C@H](O[C@H]4O[C@H](CO)[C@@H](O)[C@H](O)[C@@H]4O[C@@H]4O[C@H](CO)[C@@H](O[C@@H]5O[C@H](CO[C@]6(C(=O)O)C[C@H](O)[C@@H](NC(C)=O)[C@H]([C@H](O)[C@H](O)CO)O6)[C@H](O)[C@H](O)[C@H]5O)[C@H](O)[C@H]4NC(C)=O)[C@@H]3O)[C@H](O)[C@H]2NC(C)=O)[C@@H](CO)O[C@H]1NC(=O)C*

What was measured:
mouse GLP-1 receptor = target: T1, mouse GLP-1 receptor (Mus musculus, UniProt O35659); experiment: Test Example 6: ability to synthesize cAMP in mouse GLP-1 receptor-expressing CHO-K1 cells; format: cell-based
T1 construct: expressed in transfected cells
T1 sequence (O35659 22-463): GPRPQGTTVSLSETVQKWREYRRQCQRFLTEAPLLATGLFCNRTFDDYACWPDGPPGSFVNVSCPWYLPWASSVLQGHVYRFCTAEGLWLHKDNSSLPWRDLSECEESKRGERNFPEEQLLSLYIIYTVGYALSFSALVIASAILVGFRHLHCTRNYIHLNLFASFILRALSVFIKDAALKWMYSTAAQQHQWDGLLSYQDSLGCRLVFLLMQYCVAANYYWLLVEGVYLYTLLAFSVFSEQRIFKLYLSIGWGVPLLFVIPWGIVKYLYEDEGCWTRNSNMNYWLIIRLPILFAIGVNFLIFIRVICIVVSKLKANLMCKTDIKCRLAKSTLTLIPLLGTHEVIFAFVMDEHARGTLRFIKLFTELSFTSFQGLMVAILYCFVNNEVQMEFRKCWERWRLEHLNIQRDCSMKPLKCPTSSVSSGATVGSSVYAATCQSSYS
Protocol: 1. Construction of Mouse GLP-1 Receptor-Expressing Vector
A mouse GLP1 receptor sense primer (5′-[…]-3′) (SEQ ID NO: 152) and a mouse GLP-1 receptor antisense primer (5′-[…]-3′) (SEQ ID NO: 153) capable of binding to the 5′ and 3′ ends of mouse GLP-1 receptor cDNA were separately synthesized. PCR was performed using Ex Taq polymerase (TaKaRa) with cDNA (Clone ID: 40046534, Open Biosystems) as a template. Specifically, 50 μL in total of reaction solution consisting of 1 μL of template cDNA (10 ng/μL), 4 μL of 2.5 mM dNTPs, 1 μL of primer solution mixtures (each 50 μM), 5 μL of ×10 Ex Taq polymerase Buffer, 0.25 μL of Ex Taq polymerase and 38.75 μL of sterilized water was used and allowed to react by 94° C. for 1 minute; 94° C. for 45 seconds, 55° C. for 1 minute and 72° C. for 2 minutes (35 cycles); and 72° C. for 10 minutes. The PCR reaction product was electrophoresed on 1% agarose gel, and the cDNA fragment was purified using Wizard SV Gel and PCR Clean-up System (Promega) and treated with restriction enzymes (EcoRI and NheI) to obtain mouse GLP-1 receptor cDNA.
To efficiently obtain cells highly expressing a mouse GLP-1 receptor, a pIRES-gfp vector was used as an expression vector. This vector was prepared by inserting, to a vector pEGFP-N1 (Clontech), an IRES gene-containing DNA fragment obtained by the restriction enzyme treatment (Sal I and BamHI) of pIRESpuro2 (Clontech).
The mouse GLP-1 receptor cDNA fragment was inserted to pIRES-gfp to thereby obtain a mouse GLP-1 receptor-expressing vector mGLP-1R/pIRES-gfp. The DNA sequence of the obtained vector was confirmed using ABI3100-Avant (Applied Biosystems).
2. Preparation of Mouse GLP-1 Receptor-Expressing CHO-K1 Cells
CHO-K1 cells (ATCC catalog No. CCL-61) were transfected with the obtained mGLP-1R/pIRES-gfp using FuGENE (registered trademark) (Roche) according to the instruction manual. The transfected CHO-K1 cells were cultured in RPMI1640 medium (Wako Pure Chemical Industries) containing 10% FCS (Hyclone) and penicillin-streptomycin (SIGMA). Drug selection was conducted by the addition of 1.0 mg/ml G418 (Wako Pure Chemical Industries). The drug resistance cells were sorted with a cell sorter (EPICS ALTRA, Beckman Coulter) using a GFP expression level as an index. After the sorting, the limiting dilution method was conducted to obtain cells highly expressing GFP, namely, cells highly expressing a mouse GLP-1 receptor. The obtained cells were used as mouse GLP-1 receptor-expressing CHO-K1 cells in the experiment shown below.
3. Analysis of Agonist Effect of Oligosaccharide Chain Added GLP-1 Peptide (Ability to Synthesize cAMP)
The mouse GLP-1 receptor-expressing CHO-K1 cells prepared in the preceding paragraph 2 were used to evaluate the agonist effect of the oligosaccharide chain added GLP-1 peptide using the ability to synthesize cAMP as an index.
The mouse GLP-1 receptor-expressing CHO-K1 cells were suspended at a concentration of 5×10^5 cells/ml in RPMI1640 medium containing 10% FCS. The cell suspension was seeded at a concentration of 100 μL per well to a flat-bottomed 96-well plate (Falcon) and cultured at 5% CO2 at 37° C. for 16 hours. The culture supernatant was discarded. The oligosaccharide chain added GLP-1 peptide dissolved in Krebs Ringer bicarbonate Buffer containing 2.5 mM glucose was added at a concentration of 100 μL/well and cultured at 37° C. for 30 minutes. The culture supernatant was immediately discarded. The amount of cAMP synthesized in the mouse GLP-1 receptor-expressing CHO-K1 cells was measured using cAMP ELISA Kit (GE Healthcare or Cayman) and used as an index for the agonist effect of the oligosaccharide chain added GLP-1 peptide on mouse GLP-1 receptors.
GLP-1 increases intracellular cAMP concentrations through the binding to its receptor and promotes insulin secretion. Thus, the activity of the oligosaccharide chain added GLP-1 peptide was evaluated using the ability to synthesize cAMP as an index. […]

C57BL/6JJcl mice = experiment: Test Example 7: Oral Glucose Tolerance Test (OGTT); format: in vivo; details: for dose dependence of activity of suppressing rise in blood-sugar levels in OGTT: doses 0.9 nmol/kg and 0.09 nmol/kg intraperitoneal
Summary of the method: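 Overnight-fasted mice received oral glucose 1 mg/g 30 minutes after treatment. Orbital blood taken before and at 30, 60, 120 minutes post-glucose. Blood glucose measured by glucometer.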

[1] = tested on: db/db (BKS.Cg-+Lepr db/+Lepr db/Jcl) mice; experiment: Test Example 8: effect of lowering blood-sugar levels in diabetes model mice; format: in vivo; details: 9 nmol/kg intraperitoneal; for effect of lowering blood-sugar levels in db/db mice: 10-week-old male mice; for durability of effect of lowering blood-sugar levels in db/db mice: up to 300 minutes
Protocol: The oligosaccharide chain added GLP-1 peptide prepared in Example 2, 3, 4, 21 or 23 or the GLP-1 prepared in Comparative Example 1 in a PBS solution (9 nmol/10 ml) was intraperitoneally administered at a dose of 10 ml/kg to BKS.Cg−+Lepr^db/+Lepr^db/Jcl mice (10 week old, male). Blood was collected from the orbits before the compound administration and 30 minutes, 60 minutes, 120 minutes, 180 minutes and 300 minutes after the compound administration. Blood-sugar levels were measured using ACCU-CHEK Aviva (Roche Diagnostics).
The db/db (BKS.Cg−+Lepr^db/+Lepr^db/Jcl) mice serving as diabetes model mice have a mutation in a receptor of leptin which is anorexigenic/energy metabolism-accelerating hormone and develops conditions such as obesity or hyperglycemia.
Blood-sugar levels were measured over time, and their effects of lowering blood-sugar levels were compared with that of the GLP-1 without oligosaccharide chain addition of Comparative Example 1.

[2] = 9 nmol/kg intraperitoneal 30 minutes before glucose 1 mg/g oral

CC[C@H](C)[C@H](NC(=O)[C@H](Cc1ccccc1)NC(=O)[C@H](CCC(=O)O)NC(=O)[C@H](CCCCN)NC(=O)[C@H](C)NC(=O)[C@H](C)NC(=O)[C@H](CCC(N)=O)NC(=O)CNC(=O)[C@H](CCC(=O)O)NC(=O)[C@H](CC(C)C)NC(=O)[C@H](Cc1ccc(O)cc1)NC(=O)[C@H](CO)NC(=O)[C@H](CO)NC(=O)[C@@H](NC(=O)[C@H](CC(=O)O)NC(=O)[C@H](CO)NC(=O)[C@@H](NC(=O)[C@H](Cc1ccccc1)NC(=O)[C@@H](NC(=O)CNC(=O)[C@H](CCC(=O)O)NC(=O)[C@H](C)NC(=O)[C@@H](N)Cc1c[nH]cn1)[C@@H](C)O)[C@@H](C)O)C(C)C)C(=O)N[C@@H](CSCC(=O)N[C@@H]1O[C@H](CO)[C@@H](O[C@@H]2O[C@H](CO)[C@@H](O[C@@H]3O[C@H](CO[C@H]4O[C@H](CO)[C@@H](O)[C@H](O)[C@@H]4O[C@@H]4O[C@H](CO)[C@@H](O[C@@H]5O[C@H](CO[C@]6(C(=O)O)C[C@H](O)[C@@H](NC(C)=O)[C@H]([C@H](O)[C@H](O)CO)O6)[C@H](O)[C@H](O)[C@H]5O)[C@H](O)[C@H]4NC(C)=O)[C@@H](O)[C@H](O[C@H]4O[C@H](CO)[C@@H](O)[C@H](O)[C@@H]4O[C@@H]4O[C@H](CO)[C@@H](O[C@@H]5O[C@H](CO[C@]6(C(=O)O)C[C@H](O)[C@@H](NC(C)=O)[C@H]([C@H](O)[C@H](O)CO)O6)[C@H](O)[C@H](O)[C@H]5O)[C@H](O)[C@H]4NC(C)=O)[C@@H]3O)[C@H](O)[C@H]2NC(C)=O)[C@H](O)[C@H]1NC(C)=O)C(=O)N[C@@H](Cc1c[nH]c2ccccc12)C(=O)N[C@@H](CC(C)C)C(=O)N[C@H](C(=O)N[C@@H](CCCCN)C(=O)NCC(=O)N[C@@H](CCCNC(=N)N)C(=O)NCC(=O)O)C(C)C [Example 21, 30Cys GLP-1-disialo] (H-HAEGTFTSDVSSYLEGQAAKEFIC(X1)WLVKGRG-OH)
cAMP synthesis activity compared with GLP-1 (in words) (mouse GLP-1 receptor): activity equal to or more than that of the GLP-1
activity of suppressing rise in blood-sugar levels in OGTT (C57BL/6JJcl mice; 0.09 nmol/kg intraperitoneal): weaker activity of suppressing rise in blood-sugar levels than that of the 36Cys GLP-1-disialo at the same dose
effect of suppressing rise in blood-sugar levels in OGTT (C57BL/6JJcl mice; 0.9 nmol/kg intraperitoneal): suppressed rise in blood-sugar levels almost completely
effect of suppressing rise in blood-sugar levels in OGTT (C57BL/6JJcl mice; [2]): strong effect of suppressing rise in blood-sugar levels
dose dependence of activity of suppressing rise in blood-sugar levels in OGTT (C57BL/6JJcl mice): dose-dependent activity of suppressing rise in blood-sugar levels
effect of lowering blood-sugar levels in db/db mice [1]: strong effect of lowering blood-sugar levels
durability of effect of lowering blood-sugar levels in db/db mice [1]: blood-sugar levels were kept at low levels after 300 minutes

CC[C@H](C)[C@H](NC(=O)[C@H](Cc1ccccc1)NC(=O)[C@H](CCC(=O)O)NC(=O)[C@H](CCCCN)NC(=O)[C@H](C)NC(=O)[C@H](C)NC(=O)[C@H](CCC(N)=O)NC(=O)CNC(=O)[C@H](CCC(=O)O)NC(=O)[C@H](CC(C)C)NC(=O)[C@H](Cc1ccc(O)cc1)NC(=O)[C@H](CO)NC(=O)[C@H](CO)NC(=O)[C@@H](NC(=O)[C@H](CC(=O)O)NC(=O)[C@H](CO)NC(=O)[C@@H](NC(=O)[C@H](Cc1ccccc1)NC(=O)[C@@H](NC(=O)CNC(=O)[C@H](CCC(=O)O)NC(=O)[C@H](C)NC(=O)[C@@H](N)Cc1c[nH]cn1)[C@@H](C)O)[C@@H](C)O)C(C)C)C(=O)N[C@@H](C)C(=O)N[C@@H](Cc1c[nH]c2ccccc12)C(=O)N[C@@H](CC(C)C)C(=O)N[C@H](C(=O)N[C@@H](CSCC(=O)N[C@@H]1O[C@H](CO)[C@@H](O[C@@H]2O[C@H](CO)[C@@H](O[C@@H]3O[C@H](CO[C@H]4O[C@H](CO)[C@@H](O)[C@H](O)[C@@H]4O[C@@H]4O[C@H](CO)[C@@H](O[C@@H]5O[C@H](CO[C@]6(C(=O)O)C[C@H](O)[C@@H](NC(C)=O)[C@H]([C@H](O)[C@H](O)CO)O6)[C@H](O)[C@H](O)[C@H]5O)[C@H](O)[C@H]4NC(C)=O)[C@@H](O)[C@H](O[C@H]4O[C@H](CO)[C@@H](O)[C@H](O)[C@@H]4O[C@@H]4O[C@H](CO)[C@@H](O[C@@H]5O[C@H](CO[C@]6(C(=O)O)C[C@H](O)[C@@H](NC(C)=O)[C@H]([C@H](O)[C@H](O)CO)O6)[C@H](O)[C@H](O)[C@H]5O)[C@H](O)[C@H]4NC(C)=O)[C@@H]3O)[C@H](O)[C@H]2NC(C)=O)[C@H](O)[C@H]1NC(C)=O)C(=O)NCC(=O)N[C@@H](CCCNC(=N)N)C(=O)NCC(=O)O)C(C)C [Example 23, 34Cys GLP-1-disialo]
cAMP synthesis activity compared with GLP-1 (in words) (mouse GLP-1 receptor): activity equal to or more than that of the GLP-1
efficacy relative to 30Cys GLP-1-disialo and 36Cys GLP-1-disialo at the same dose in OGTT (C57BL/6JJcl mice; 0.9 nmol/kg intraperitoneal): about ½
effect of suppressing rise in blood-sugar levels in OGTT (C57BL/6JJcl mice; [2]): strong effect of suppressing rise in blood-sugar levels
dose dependence of activity of suppressing rise in blood-sugar levels in OGTT (C57BL/6JJcl mice): dose-dependent activity of suppressing rise in blood-sugar levels
effect of lowering blood-sugar levels in db/db mice [1]: strong effect of lowering blood-sugar levels
durability of effect of lowering blood-sugar levels in db/db mice [1]: effects of lowering blood-sugar levels were slightly weakened over time
